Measured values published in patent US5827883A, “Dermatological use of vitamin D derivatives” (priority 1995, dated 1998).
Where two headings read alike, the source gives them in different places.

What was measured:
[1] = target: T1, human VDR (Homo sapiens, UniProt P11473); test: VDR activation (transcription activation assay; COS cells cotransfected with human VDR and VDRE3-luciferase reporter); format: cell-based; conditions: human VDR (pSG5), VDRE3 rat osteocalcin / tk promoter / luciferase reporter, concentration giving half-maximal activity (8-10 fold luciferase induction), read-out: Vitamin D Receptor Activation ED50
T1 construct: expressed in transfected cells; host or cells: COS cells
T1 sequence (P11473 1-427): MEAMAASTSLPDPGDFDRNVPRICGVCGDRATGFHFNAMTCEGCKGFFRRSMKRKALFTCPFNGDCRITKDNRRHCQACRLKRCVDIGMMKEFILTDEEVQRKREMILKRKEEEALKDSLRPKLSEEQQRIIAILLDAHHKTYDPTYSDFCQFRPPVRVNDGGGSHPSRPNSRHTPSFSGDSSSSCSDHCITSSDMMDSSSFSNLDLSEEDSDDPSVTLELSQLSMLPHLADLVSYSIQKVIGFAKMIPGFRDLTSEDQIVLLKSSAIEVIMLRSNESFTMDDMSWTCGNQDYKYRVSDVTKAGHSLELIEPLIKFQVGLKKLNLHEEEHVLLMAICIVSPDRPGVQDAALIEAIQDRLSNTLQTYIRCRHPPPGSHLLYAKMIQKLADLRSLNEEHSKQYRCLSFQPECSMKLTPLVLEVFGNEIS
Excerpt: In order to measure the activation of the vitamin D receptor (VDR) by vitamin D analogs in cells a transcription activation assay was used. COS cells were cotransfected with the human VDR (expressed in pSG5) and a reporter gene containing three response elements (VDRE3) from the rat osteocalcin gene, the thymidine kinase basal promoter, and the luciferase reporter gene.

[2] = Calcium liability (tolerance test in mice); conditions: mouse, in vivo, sc
Excerpt: This routine test gives a global picture of calcemic liability. Profound changes in calcium homeostasis strongly affect the weight development of the animals. This parameter was used as a primary test for tolerance. Mice (25-30 g body weight.) received daily subcutaneous administrations of the vitamin D derivative for 4 consecutive days. Body weight was registered just before and at the end of a 5 day treatment period.

[3] = mice 25-30 g, daily subcutaneous administration for 4 consecutive days, body weight before and at end of 5 day treatment period, read-out: HTD in mice (highest tolerated dose, dose which results in zero weight gain)

In the case of `C=C1/C(=C\C=C2/CCC[C@]3(C)[C@@H]([C@H](C)COC(=O)CC(C)(O)CC)CC[C@@H]23)C[C@@H](O)C[C@@H]1O` (mixture of isomers) [Example 29, 1:1 Mixture of (R)-and-(S)-3-hydroxy-3-methyl-pentanoic acid-(5Z,7E)-(1S,3R,20S)-1,3-dihydroxy-20-methyl-9,10-seco-pregna-5,7,10 (19)-trien-21-yl ester], the EC50 [1] is reported as 0.0025 µM and the MTD at 120 h [2] is reported as 7 mg/kg.
With `C=C1/C(=C\C=C2/CCC[C@]3(C)[C@@H]([C@H](C)CCCC(C)(C)O)CC[C@@H]23)C[C@@H](O)C[C@@H]1O` [Calcitriol, calcitriol, reference compound] the MTD at 120 h [2, 3] was 0.0005 mg/kg.
Compound `C[C@H](C(=O)OCC1(O)CCCC1)[C@H]1CC[C@H]2/C(=C/C=C3C[C@@H](O)C[C@H](O)C3)CCC[C@]12C` [Example 7, (7E)-(1R,3R,20S)-1,3-Dihydroxy-20-methyl-19-nor-9,10-seco-pregna-5,7-dien-21-oic acid 1-hydroxy-cyclopentylmethyl ester] has an EC50 [1] of 0.018 µM and an MTD at 120 h [2, 3] greater than 5 mg/kg.
In the case of `C[C@H](C(=O)OCC1(O)CCCCC1)[C@H]1CC[C@H]2/C(=C/C=C3C[C@@H](O)C[C@H](O)C3)CCC[C@]12C` [Example 8, (7E)-(1R,3R,20S)-1,3-Dihydroxy-20-methyl-19-nor-9,10-seco-pregna-5,7-dien-21-oic acid 1-hydroxy-cyclohexyl methyl ester], the EC50 [1] is reported as 0.038 µM and the MTD at 120 h [2, 3] is reported as 1 mg/kg.
In the case of `C=C1/C(=C\C=C2/CCC[C@]3(C)[C@@H]([C@H](C)C(=O)OCC4(O)CCCCC4)CC[C@@H]23)C[C@@H](O)C[C@@H]1O` [Example 9, (5Z,7E)-(1R,3R,20S)-1,3-Dihydroxy-20-methyl-9,10-seco-pregna-5,7,10-trien-21-oic acid 1-hydroxy-cyclohexylmethyl ester], the EC50 [1] is reported as 0.0056 µM and the MTD at 120 h [2, 3] is reported as 1 mg/kg.
`C[C@H](C(=O)OCC1(O)CCCCCC1)[C@H]1CC[C@H]2/C(=C/C=C3C[C@@H](O)C[C@H](O)C3)CCC[C@]12C` [Example 10, (7E)-(1R,3R,20S)-1,3-Dihydroxy-20-methyl-19-nor-9,10-seco-pregna-5,7-dien-21-oic acid 1-hyddroxy-cycloheptylmethyl ester] showed an EC50 [1] of 0.031 µM and an MTD at 120 h [2, 3] greater than 6 mg/kg.
`C[C@H](C(=O)OCCC1(O)CCCC1)[C@H]1CC[C@H]2/C(=C/C=C3C[C@@H](O)C[C@H](O)C3)CCC[C@]12C` [Example 11, (7E)-(1R,3R,20S)-1,3-Dihydroxy-20-methyl-19-nor-9,10-seco-pregna-5,7-dien-21-oic acid 2-(1-hyddroxy-cyclopentyl)-ethyl ester] gave an EC50 [1] of 0.18 µM and an MTD at 120 h [2, 3] greater than 6 mg/kg.
`C=C1/C(=C\C=C2/CCC[C@]3(C)[C@@H]([C@@H](C)COC(=O)C(C)(C)C)CC[C@@H]23)C[C@@H](O)C[C@@H]1O` [Example 19, 2,2-Dimethyl-propionic acid-(5Z,7E)-(1S,3R,20R)-1,3-dihydroxy-20-methyl-9,10-seco-pregna-5,7,10 (19)-trien-21-yl ester] gave an EC50 [1] of 0.00028 µM and an MTD at 120 h [2] greater than 6 mg/kg.
`C=C1/C(=C\C=C2/CCC[C@]3(C)[C@@H]([C@@H](C)COC(=O)C(C)(C)O)CC[C@@H]23)C[C@@H](O)C[C@@H]1O` [Example 20, 2-Hydroxy-2-methyl-propionic acid-(5Z,7E)-(1S,3R,20R)-1,3-dihydroxy-20-methyl-9,10-seco-pregna-5,7,10 (19)-trien-21-yl ester] gave an EC50 [1] of 0.00082 µM and an MTD at 120 h [2] greater than 10 mg/kg.
In the case of `C[C@@H](COC(=O)C(C)(C)O)[C@H]1CC[C@H]2/C(=C/C=C3C[C@@H](O)C[C@H](O)C3)CCC[C@]12C` [Example 21, 2-Hydroxy-2-methyl-propionic acid-(7E)-(1R,3R,20R)-1,3-dihydroxy-20-methyl-19-nor-9,10-seco-pregna-5,7-dien-21-yl ester], the EC50 [1] is reported as 0.00055 µM and the MTD at 120 h [2, 3] is reported as greater than 9 mg/kg.
`C=C1/C(=C\C=C2/CCC[C@]3(C)[C@@H]([C@H](C)COC(=O)C(C)(C)C)CC[C@@H]23)C[C@@H](O)C[C@@H]1O` [Example 22, 2,2-Dimethyl-propionic acid (5Z,7E)-(1R,3R)-1,3-dihydroxy-23,24-dinor-9,10-secochola-5,7-dien-22-yl ester] showed an EC50 [1] of 0.141 µM and an MTD at 120 h [2] of 9 mg/kg.
With `C=C1/C(=C\C=C2/CCC[C@]3(C)[C@@H]([C@H](C)COC(=O)C(C)(C)O)CC[C@@H]23)C[C@@H](O)C[C@@H]1O` [Example 23, 2-Hydroxy-2-methyl-propionic acid-(5Z,7E)-(1S,3R,20S)-1,3-dihydroxy-20-methyl-9,10-seco-pregna-5,7,10 (19)-trien-21-yl ester] the EC50 [1] was 0.083 µM and the MTD at 120 h [2] was greater than 11 mg/kg.
Compound `C=C1/C(=C\C=C2/CCC[C@]3(C)[C@@H]([C@H](C)COC(=O)C(O)(CC)CC)CC[C@@H]23)C[C@@H](O)C[C@@H]1O` [Example 24, 2-Ethyl-2-hydroxy-butyric acid-(5Z,7E)-(1S,3R,20S)-1,3-dihydroxy-20-methyl-9,10-seco-pregna-5,7,10 (19)-trien-21-yl ester] has an EC50 [1] of 0.018 µM and an MTD at 120 h [2, 3] of 2.5 mg/kg.
`C=C1/C(=C\C=C2/CCC[C@]3(C)[C@@H]([C@H](C)COC(=O)CC(C)(O)C(F)(F)F)CC[C@@H]23)C[C@@H](O)C[C@@H]1O` (stereo partly drawn) [Example 28] gave an EC50 [1] of 0.00053 µM and an MTD at 120 h [2, 3] of 0.5 mg/kg.
